# Where “and” joins values, the source holds several entries; their conditions need not be identical. Equal values may be shown once.
# Assays:
# Type in all cases: cell-based, Plasmodium falciparum
# [1] = test system: PfCRT variant E207I; assay: CQ uptake assay, oocytes expressing E207I
# Experimental: (§1) Site-directed mutagenesis of PfCRT^Dd2 was performed as described using the megaprimer method with overlap extension[21],[54]. The primer pairs used are listed in Supplementary Table 6. Please note that a codon-optimized and oocyte-adapted version of PfCRT^Dd2 was used[22] (Supplementary Fig. 16). The resulting DNA fragment was cloned into the SP64T expression vector and verified by sequencing.
# (§2) Oocytes were obtained as described previously. Briefly, adult (>2 years old) female X. laevis frogs (NASCO) were anesthetized in a cooled solution of ethyl 3-amino benzoate methanesulfonate (0.1%, w/v), followed by a surgical removal of parts of the ovary. The ovary lobes were carefully dissected and small pieces of oocytes were incubated in Ca^2+-free ND96 buffer (96 mM NaCl, 2 mM KCl, 1 mM MgCl2 buffered with 5 mM HEPES/NaOH, pH 7.5) supplemented with collagenase D (0.1%, w/v; Roche), BSA (0.5%, w/v), and 9 mm Na2HPO4 at 18 °C for 14-16 h while gentle shaking. After incubation, the oocytes were carefully washed several times with ND96 buffer (96 mM NaCl, 2 mM KCl, 1.8 mM CaCl2, 1 mM MgCl2 buffered with 5 mM HEPES/NaOH, pH 7.5) supplemented with 100 mg l^−1 gentamycin). Defolliculated and healthy-looking stage V-VI oocytes were manually selected for RNA microinjection. The RNA was generated as following: The codon-optimized sequences of PfCRT variants were cloned into the pSP64T expression vector. After vector linearization using the restriction endonucleases BamHI or SalI (New England Biolabs), transcription was performed using the in vitro SP6 mMessage mMachine Kit (Ambion)[34]. The obtained RNA was kept at −80 °C and diluted with nuclease-free water to a concentration of 0.6 μg μl^−1. Precision-bore glass capillary tubes (3.5-inch glass capillaries; Drummond Scientific Co.) were pulled on a vertical puller (P-87 Flaming/Brown micropipette puller, Sutter Instrument Co.), graduated, and placed on a microinjector (Nanoject II Auto-Nanoliter Injector, Drummond Scientific Co.). 50 nl of nuclease-free water alone (control oocytes) or 50 nl of 0.6 μg μl^−1 RNA were injected under stereomicroscopic control. Injected oocytes were incubated for 46–72 h at 18 °C with twice-daily buffer changes before usage in experiments.
# Drug uptake assays were performed as described previously[21],[22],[24],[34]. […] The direction of radio-labeled drug transport is here from the mostly acidic extracellular solution (pH 4.5 or 6.0, as indicated) into the oocyte cytosol (pH ∼ 7.2), which corresponds to the efflux of drug from the acidic digestive vacuole (pH 5.2) into the parasite cytoplasm (pH 7.2). The topology of PfCRT in the oolemma is such that both the N- and C-terminus face the extracellular milieu[3],[22]. In the parasite, the N- and C-terminus face the lumen of the digestive vacuole. […] For determination of the amount of drug uptake for each oocyte, the reaction medium was removed and the oocytes were washed three times with 2 ml of ice-cold ND96 buffer. Each oocyte was individually transferred to a scintillation vial containing 5% sodium dodecyl sulfate (200 μl) for lysis. […] Oocytes that were injected with water instead of RNA were analyzed in parallel, representing the uptake of a drug by diffusion and/or endogenous permeation pathways. The resulting value represents the “background“ level of drug accumulation in oocytes (in-depth discussion in[22]). The specific PfCRT-mediated uptake was determined by subtracting the corresponding background value measured in water-injected oocytes from that of PfCRT-expressing oocytes. In all cases, at least three separate experiments were performed on oocytes from different frogs (biological replicate), and for each condition in an experiment, measurements were made from 10 oocytes per treatment. For pH 5.5, 6.0, and 6.5, ND96 was buffered with 5 mM MES/Tris base.
# [2] = test system: PfCRT variant E207G; assay: CQ uptake assay, oocytes expressing E207G
# Experimental: as §1, §2
# (§3) Drug uptake assays were performed as described previously[21],[22],[24],[34]. […] The direction of radio-labeled drug transport is here from the mostly acidic extracellular solution (pH 4.5 or 6.0, as indicated) into the oocyte cytosol (pH ∼ 7.2), which corresponds to the efflux of drug from the acidic digestive vacuole (pH 5.2) into the parasite cytoplasm (pH 7.2). The topology of PfCRT in the oolemma is such that both the N- and C-terminus face the extracellular milieu[3],[22]. In the parasite, the N- and C-terminus face the lumen of the digestive vacuole. CQ uptake kinetics were performed by incubating oocytes in ND96 buffer adjusted to a pH of 4.5, 5.0, 5.5, or 6.0 and supplemented with 50 nM [^3H]CQ and one of 7 different CQ concentrations (10 µM, 50 µM, 100 µM, 200 µM, 300 µM, 400 µM, 500 µM CQ). The reaction was stopped at the 60 min time point, which is in the linear uptake range[22],[34] (Supplementary Fig. 17). For determination of the amount of drug uptake for each oocyte, the reaction medium was removed and the oocytes were washed three times with 2 ml of ice-cold ND96 buffer. Each oocyte was individually transferred to a scintillation vial containing 5% sodium dodecyl sulfate (200 μl) for lysis. The radioactivity of each sample was measured using a liquid scintillation analyzer Tri-Carb 4910 TR (PerkinElmer). Oocytes that were injected with water instead of RNA were analyzed in parallel, representing the uptake of a drug by diffusion and/or endogenous permeation pathways. The resulting value represents the “background“ level of drug accumulation in oocytes (in-depth discussion in[22]). […]
# [3] = test system: PfCRT variant E207S; assay: CQ uptake assay, oocytes expressing E207S
# Experimental: as §1, §2, §3
# [4] = E207I, 50 µM CQ, 1 h, mean ± SEM
# [5] = pH 4.5, individual replicates, Fig 6b
# [6] = pH 6.0, individual replicates, Fig 6b
# [7] = ratio of activity pH 4.5 / pH 6.0
# [8] = E207G, 50 µM CQ, 1 h, mean ± SEM
# [9] = E207S, 50 µM CQ, 1 h, mean ± SEM
smiles,measurement,setting,value
"CCN(CC)CCCC(C)Nc1ccnc2cc(Cl)ccc12 (stereo not drawn) [CQ, chloroquine]",Activity at pH 4.5,[1]; [4],2.05 ± 0.22 pmol h-1 oocyte-1
same,Activity at pH 6.0,[1]; [4],2.15 ± 0.11 pmol h-1 oocyte-1
same,R-value,"[1]; E207I, CQ transport at pH 4.5 / pH 6.0",0.95 ± 0.01
same,E207I transport activity pH 4.5,[1]; [5],2.06 pmol oocyte-1 h-1 and 2.31 pmol oocyte-1 h-1
same,E207I transport activity pH 6.0,[1]; [6],2.16 pmol oocyte-1 h-1 and 1.90 pmol oocyte-1 h-1 and 2.38 pmol oocyte-1 h-1
same,E207I R-value,[1]; [7],0.95 and 0.93 and 0.97
same,Activity at pH 4.5,[2]; [8],2.26 ± 0.46 pmol h-1 oocyte-1
same,Activity at pH 6.0,[2]; [8],2.55 ± 0.15 pmol h-1 oocyte-1
same,R-value,"[2]; E207G, CQ transport at pH 4.5 / pH 6.0",0.88 ± 0.06
same,E207G transport activity pH 4.5,[2]; [5],2.31 pmol oocyte-1 h-1 and 2.79 pmol oocyte-1 h-1 and 1.67 pmol oocyte-1 h-1
same,E207G transport activity pH 6.0,[2]; [6],2.70 pmol oocyte-1 h-1 and 2.76 pmol oocyte-1 h-1 and 2.19 pmol oocyte-1 h-1
same,E207G R-value,[2]; [7],0.86 and 1.01 and 0.76
same,Activity at pH 4.5,[3]; [9],2.94 ± 0.21 pmol h-1 oocyte-1
same,Activity at pH 6.0,[3]; [9],3.07 ± 0.23 pmol h-1 oocyte-1
same,R-value,"[3]; E207S, CQ transport at pH 4.5 / pH 6.0",0.96 ± 0.01
same,E207S transport activity pH 4.5,[3]; [5],3.45 pmol oocyte-1 h-1 and 2.79 pmol oocyte-1 h-1 and 2.59 pmol oocyte-1 h-1
same,E207S transport activity pH 6.0,[3]; [6],3.59 pmol oocyte-1 h-1 and 2.98 pmol oocyte-1 h-1 and 2.63 pmol oocyte-1 h-1
same,E207S R-value,[3]; [7],0.96 and 0.94 and 0.98

# — article PMC10349806 (Nature Communications, 2023)
